Measured values as given in patent US7151180B2, “Potassium channel modulators” (Bristol-Myers Squibb Company, priority 2003, dated 2006).

What was measured:
[1] = tested on: cloned mammalian (mSlo or hSlo) BK channels expressed in Xenopus oocytes; assay: Assay for BK channel openers: two-electrode voltage clamp of BK-mediated outward current in Xenopus oocytes; type: cell-based; details: at 20 μM; percent increase over BK current in controls; voltage step to +140 mV; 5–10 oocytes
Description: The ability of the compounds of the invention to open BK channels and increase whole-cell outward (K^+) BK-mediated currents was assessed under voltage-clamp conditions by determining their ability to increase cloned mammalian (mSlo or hSlo) BK-mediated outward current heterologously expressed in Xenopus oocytes [Butler, A., et al., Science 1993, 261, 221–224; Dworetzky, S. I., et al., Mol. Brain Res. 1994, 27, 189–193; Gribkoff, V. K., et al., Mol. Phannacol. 1996, 50, 206–217]. The two BK constructs employed represent nearly structurally identical homologous proteins, and have proven to be pharmacologically indistinguishable in our tests. To isolate BK current from native (background, non-BK) current, the specific and potent BK channel-blocking toxin iberiotoxin (IBTX) [Galvez, A., et al., J. Biol. Chem. 1990, 265, 11083–11090] was employed at a supramaximal concentration, e.g., 50–100 nanomolar (“nM”). The relative contribution of BK channel-mediated current to total outward current was determined by subtraction of the current remaining in the presence of IBTX (non-BK current) from the current profiles obtained in all other experimental conditions (control, drug, and wash) [Gribkoff, V. K. et al., Mol. Pharmacol. 1996, 50, 206–217]. […] All compounds were tested in 5–10 oocytes and are reported at the indicated concentration of 20 micromolar (“μM”) (or as otherwise indicated); the effect of the selected compounds of the invention on BK current was expressed as the percent of control IBTX-sensitive current at a single transmembrane voltage (+140 mV) and is listed in Table 1.Recordings were accomplished using standard two-electrode voltage clamp techniques [Stuhmer, W., et al., Methods in Enzymology, 1992, 207, 319–339]; voltage-clamp protocols consisted of 500–750 milliseconds (“ms”) duration step depolarizations, from a holding potential of −60 mV, to a final voltage up to +140 mV in 20 mV steps. The experimental media (modified Barth's solution) consisted of millimolar (“mM”): NaCl (88), NaHCO3 (2.4), KCl (1.0), HEPES (10), MgSO4 (0.82), Ca(NO3)2 (0.33), CaCl2 (0.41); pH 7.5.

[2] = tested on: rabbit corpus cavernosum tissue; assay: Relaxation of rabbit corpus cavernosum strips (phenylephrine-induced force); details: Oryctolagus cuniculus, inhibition of phenylephrine (3 μM)-induced force compared to vehicle control, read-out: % Inhibition of force (RCC strips)
Description: The ability of the compounds of the invention to relax rabbit corpus cavernosum tissue as a model for the treatment of erectile dysfunction is described as follows. New Zealand white rabbits (3.4–3.7 kg) were euthanized by sodium pentobarbital (100 mg/kg) overdose. The penis from each animal was rapidly removed and immersed in a cold oxygenated modified Krebs Henseleit bicarbonate buffer. The penis' outer tunica was removed and the corpus cavernosum smooth muscle obtained and cut into strips approximately 3–5 mm long. The strips were suspended in tissue baths containing physiological salt solution (see above), and allowed to equilibrate for at least one hour under resting tension of 1.0 gram. Isometric force was measured as described above. Tissue strips were stimulated with the α-agonist phenylephrine (3 μM) and allowed to reach a steady level of force prior to the addition of test compounds. The results are expressed as the percentage inhibition of phenylephrine-induced force as compared to vehicle control.

[3] = tested on: rat small intestine tissue; assay: Relaxation of rat small intestine (ileum) strips (nifedipine-sensitive force); details: integral of nifedipine-sensitive force, 30 min post-compound
Excerpt: The ability of the compounds of the invention to relax rat small intestine tissue as a model for the treatment of irritable bowel syndrome is described as follows. Male rats (Harlan, Sprague Dawley, 250–350 g) were sacrificed by decapitation. A portion of small intestine (ileum) was removed and the attached connective tissues and intestinal contents removed. The ileum was cut into segments of ≦1 cm in length. The segments were mounted longitudinally between fixed hooks in organ baths containing warm (37° C.) physiological salt solution (composition in mM: NaCl 118.4,KCl 4.7,KH2PO4 1.2,MgSO4 1.2,CaCl2 1.8,Glucose 10.1, NaHCO3 25; gassed with 95% O2/5% CO2, pH 7.4). A stable tension of ˜1.5 g was maintained in the tissue segments during the equilibration period of 45 minutes. Changes in muscle tension were measured with isometric force transducers (Grass, FT-03C) and recorded using AcqKnowledge data acquisition system (AcqKnowledge for MP100WS, Biopac Systems Inc., Goleta, Calif.). Compound or vehicle was added in the baths for 30 minutes. “Zero” active force was established at the end of the experiment using nifedipine (20 μM). The effects of compounds or vehicle on force was determined by measuring the integral of nifedipine-sensitive force (including resting tone and spontaneous contractions) pre- and 30 min post-compound (or vehicle) addition. Results are expressed as the percentage inhibition of force. DMSO vehicle inhibited force (integral) by −0.6±3.0% (n=25).

Row | Compound | melting point [°C] | % MaxiK opening [1] [%] | inhibition [2] [%] | % Inhibition of force (RSI strips) [3] [%]
1 | O=c1[nH]c2ccc(C(F)(F)F)cc2c(-c2cc(Cl)ccc2O)c1Sc1ncccn1 [Example 3, 4-(5-Chloro-2-hydroxy-phenyl)-3-(pyrimidin-2-ylsulfanyl)-6-trifluoromethyl-1H-quinolin-2-one] | 302 to 303 | 144 | – | –
2 | Cn1cnnc1Sc1c(-c2cc(Cl)ccc2O)c2cc(C(F)(F)F)ccc2[nH]c1=O [Example 5, 4-(5-Chloro-2-hydroxy-phenyl)-3-(4-methyl-4H-[1,2,4]triazol-3-ylsulfanyl)-6-trifluoromethyl-4a,8a-dihydro-1H-quinolin-2-one] | – | 167 | 35 | –
3 | Nc1nnc(Sc2c(-c3cc(Cl)ccc3O)c3cc(C(F)(F)F)ccc3[nH]c2=O)s1 [Example 7, 3-(5-Amino-[1,3,4]thiadiazol-2-ylsulfanyl)-4-(5-chloro-2-hydroxyphenyl)-6-trifluoromethyl-1H-quinolin-2-one] | 260 to 270 | 237 | 45 | 40
4 | O=c1[nH]c2ccc(C(F)(F)F)cc2c(-c2cc(Cl)ccc2O)c1SCc1ccc(O)cc1 [Example 8, 4-(5-Chloro-2-hydroxyphenyl)-3-(4-hydroxybenzylsulfanyl)-6-trifluoromethyl-1H-quinolin-2-one] | 206 to 208 | 227 | 33 | –
5 | Cn1c(=O)c(Sc2ccc(N)cc2)c(-c2cc(Cl)ccc2O)c2cc(C(F)(F)F)ccc21 [Example 2, 3-[(4-Aminophenyl)thio]-4-(5-chloro-2-hydroxyphenyl)-1-methyl-6-(trifluoromethyl)-2(1H)-quinolinone] | – | 144 | 7 | –
6 | COc1ccc(Cl)cc1-c1c(Sc2ccc(C(=O)O)cc2)c(=O)[nH]c2ccc(C(F)(F)F)cc12 [Example 11, 4-[4-(5-Chloro-2-methoxy-phenyl)-2-oxo-6-trifluoromethyl-1,2-dihydro-quinolin-3-ylsulfanyl]-benzoic acid] | – | 177 | – | –
7 | O=c1[nH]c2ccc(C(F)(F)F)cc2c(-c2cc(Cl)ccc2O)c1Sc1ccncc1 [Example 4, 4-(5-Chloro-2-hydroxy-phenyl)-3-(pyridin-4-ylsulfanyl)-6-trifluoromethyl-1H-quinolin-2-one] | 257 to 260 | 206 | 36 | 17
8 | O=c1[nH]c2ccc(C(F)(F)F)cc2c(-c2cc(Cl)ccc2O)c1Sc1ccc(O)cc1 [Example 6, 4-(5-Chloro-2-hydroxyphenyl)-3-(4-hydroxyphenylsulfanyl)-6-trifluoromethyl-1H-quinolin-2-one] | 180 to 190 | 307 | 8 | 21
9 | Nc1ccc(Sc2c(-c3cc(Cl)ccc3O)c3cc(C(F)(F)F)ccc3[nH]c2=O)cc1 [Example 1, 3-[(4-Aminophenyl)thio]-4-(5-chloro-2-hydroxyphenyl)-6-(trifluoromethyl)-2(1H)-quinolinone] | – | 392 | 27 | 10
10 | O=c1[nH]c2ccc(C(F)(F)F)cc2c(-c2cc(Cl)ccc2O)c1Sc1ccccc1O [Example 9, 4-(5-Chloro-2-hydroxyphenyl)-3-(2-hydroxyphenylsulfanyl)-6-trifluoromethyl-1H-quinolin-2-one] | 290 to 292 | 145 | – | –
11 | O=C(O)c1ccc(Sc2c(-c3cc(Cl)ccc3O)c3cc(C(F)(F)F)ccc3[nH]c2=O)cc1 [Example 10, 4-[4-(5-Chloro-2-hydroxy-phenyl)-2-oxo-6-trifluoromethyl-1,2-dihydro-quinolin-3-ylsulfanyl]-benzoic acid] | – | 209 | 29 | –
